“And” between values parts separate entries of the source, which are not always exact repeats. Equal values may be shown once. “Also recorded” adds a separate entry of the source.
How the values were obtained:
[1] = Rheology of CASP hydrogels/solutions (strain sweep, shear recovery); assay type: physicochemical; conditions: for storage modulus (G') at 1% strain: 2% w/v hydrogels/solutions
Experimental: For rheology, 2% peptide hydrogel was transferred between a plate and a 4 mm parallel plate geometry with a gap of 350 μm, on a Malvern Kinexus Ultra+rheometer. Strain sweep (0.1-100% strain at 1 Hz) and shear recovery (1% strain at 1 Hz for 5 min, 100% strain at 1 Hz for 1 min, and 1% strain at 1 Hz for 5 min) were carried out.

[2] = system: Pseudomonas aeruginosa PAO1; assay: Colony disruption on agar plates (inhibition zones, SEM); assay type: cell-based; conditions: P. aeruginosa PAO1 on agar, peptide hydrogels/solutions applied, overnight
Experimental: Colonies of the gram-negative bacteria Pseudomonas aeruginosa PAO1 were grown on agar and CASP solutions were applied to assess their colony-disruption ability (FIGS. 9A-9E). Cationic amphiphilic peptide nanofibers show noticeable bactericidal effect. This effect was correlated with the terminal charge on the cationic nanofibers (FIGS. 9C-9D), consistent with the hypothesis that a greater terminal charge facilitates the association of the peptide nanofibrils with the bacterial cell membrane.
To test the efficacy of CASPs against bacterial colonies, Pseudomonas aeruginosa (PAO1) were cultured on agar plates and peptide hydrogels/solutions were placed on these bacteria cultures during the exponential growth phase to evaluate the antibacterial properties. The experiment to test antibacterial activity of the peptides was carried out over 4 days. On day 1, an agar plate was streaked with the bacteria using an inoculating loop. The streaked plate was then kept in an incubator to allow for bacterial growth overnight. Day 2 consisted of inoculating one colony of bacteria from the streaked plate into a glass tube filled with 5 mL of the Luria-Bertani (LB) broth. The tube is then set aside to allow for the colony to grow overnight in the LB broth. The following day the agar plates were labeled with the type of bacteria, concentration used, treatment being tested, and the date. […]

NIH 3T3 fibroblasts = assay: In vitro cytocompatibility (LIVE/DEAD viability/cytotoxicity kit); assay type: cell-based; conditions: 0.002% peptide in media, day 3
Experimental: For in vitro cytocompatibility tests, cultured were NIH 3T3 fibroblasts in DMEM supplemented with 10% FBS and 1× penicillin-streptomycin in T75 flasks. After the fibroblasts reached confluency, they were seeded in a 96-well plate at 2,500 cells/well. 0.002% CASP-K6 (n=6) and a control (media with sucrose and phosphate-buffered saline (PBS), n=6) were tested. For the former, the peptide was supplemented in the media, and for the control, 298 mM sucrose and PBS was supplemented to the media. The sucrose and PBS supplemented in the media control corresponded to the quantities required to formulate CASP-K6. Media was changed daily for 3 days and cytocompatibility was assessed on day 3 using a LIVE/DEAD viability/cytotoxicity kit (images were taken on a Nikon Eclipse Ti—S inverted fluorescent microscope). A NIH ImageJ was used to quantify cell viability.

[3] = In vivo subcutaneous implantation of hydrogel, histology; design: species or system Wistar rats
Experimental: To test the in vivo persistence of the peptide, Wistar rats were subcutaneously injected with 200 μL CASP-K6 hydrogel (2% w/v). Because of the thixotropic nature of the hydrogel, it reconstituted post-injection in the subcutaneous pocket. At prescribed time intervals (1, 3, and 7 days), the rats were sacrificed and the dorsal skin covering the implant was removed for histological examination. Used was hematoxylin and eosin (H&E) FIGS. 15A-15B, and Masson's trichrome staining FIGS. 15C-15D) to analyze the tissue sections.
For in vivo subcutaneous implantations, NJIT-Rutgers animal care facility was used. Injected was ˜200 μL CASP-K6 hydrogels in the subcutaneous pocket (dorsal aspect) of female Wistar rats (˜250 g, Charles River) (four implants (n=4) per rat). At the specified time points (1 day, 3 day, and 7 day), the animals were sacrificed and regions around the implant were excised, fixed, and processed. Hematoxylin and eosin (H&E) and Masson's trichrome staining was used for histologic analysis.

[4] = Hydrogel formation after addition of 10xPBS to 2% (w/v) peptide solution in 298 mM sucrose; assay type: physicochemical; conditions: 2% (w/v) in 298 mM sucrose, 10xPBS pH 7 added 1:9
Experimental: In one example, after purification and lyophilization, the peptides are dissolved in 298 mM sucrose solution to prepare 2% (w/v) solutions. After the addition of 10×PBS (pH 7) to the peptide solution (in a 1:9 volumetric ratio), hydrogels form within seconds. Biofilms of the gram-negative bacteria Pseudomonas putida are grown on agar plates and CASP solutions are applied on top of established biofilms to test their ability to disrupt the bacterial colony. Cationic amphiphilic peptide nanofibers show noticeable bactericidal effect on biofilms. This effect is correlated with the terminal charge on the cationic nanofibers, consistent with initial hypothesis contained herein that higher terminal charge facilitates the association of the peptide nanofibrils with the bacterial cell membrane. The effect of the antibacterial hydrogel is localized on the biofilm.
In this example, a series of CASPs was explored. The series of CASPs were synthesized through solid-phase peptide synthesis and verified by mass spectrometry as shown in FIGS. 3A-3D. After purification and lyophilisation, the peptides were dissolved in 298 mM sucrose solution to prepare 2% (w/v) solutions. After the addition of 10×PBS (pH 7) to the peptide solution (in a 1:9 volumetric ratio), CASP-K2 through CASP-K6 formed hydrogels within seconds.

[5] = cited from earlier work

Substance: Ac-KKKKKKSLSLSLSLSLSLKKKKKK-NH2 [CASP-K6]
- storage modulus (G') at 1% strain [1]: ~210 Pa
- storage modulus of hydrogel (rheometry) ([1]; strain not stated): > 100 Pa and > 200 Pa
- shear strain at which the gel liquefied (G'<G'') ([1]; strain sweep): > 30 % strain
- disruption of bacterial colonies / antibacterial activity [2]: very effective in disrupting the bacterial layer; also recorded: comparable antibacterial activity
- toxicity with respect to mammalian cells (cytocompatibility) (NIH 3T3 fibroblasts): low toxicity
- in vivo persistence ([3]; rat, in vivo, sc): persists in vivo
- in vivo persistence of subcutaneous implant (remained observable) ([3]; rat, in vivo, sc): at least 7 days
- local/systemic toxicity or mortality ([3]; subcutaneous implants in rats, up to 7 days): did not induce any local/systemic toxicity or mortality

Substance: KKKKKKKKSLSLSLSLSLSLKKKKKKKK (CASP-K8) [cationic amphiphilic self-assembling peptide]
- storage modulus (G') at 1% strain [1]: ~30 Pa
- hydrogel formation [4]: failed to form a gel; also recorded: remained in solution
- disruption of bacterial colonies / antibacterial activity [2]: very effective in disrupting the bacterial layer

Substance: KKKKSLSLSLSLSLSLKKKK (CASP-K4) [cationic amphiphilic self-assembling peptide]
- storage modulus (G') at 1% strain [1]: ~430 Pa

Substance: KKSLSLSLSLSLSLKK (CASP-K2) [cationic amphiphilic self-assembling peptide, previously reported as a multifunctional scaffold]
- storage modulus (G') at 1% strain [1]: ~620 Pa

Substance: LL-37: natural antimicrobial peptide
- enzymatic degradation in vivo [5]: susceptible to enzymatic degradation in vivo within a time period of hours
